The conditions of series [1]: cited from earlier work.
For series [2], the target named is PAI-1 (Homo sapiens, UniProt P05121). The settings on record: dual mechanism of action; cited from earlier work.
For series [3] the following is noted: in vivo; cited from earlier work.
The subject of series [4] is TGF-B1-induced lung fibrosis. The settings on record: in vivo; cited from earlier work.
The subject of series [5] is nonhuman primates. The settings on record: cited from earlier work.
Series [6] has as its system rats. The settings on record: cited from earlier work.
The test system of series [7] is C57BL/6J mice. Nature of the series: Adaptive vs maladaptive (PTSD-like) fear memory, fear conditioning procedure. It is filed as in vivo. The source says: Surgical procedure. Male C57BL/6J mice {n=20 in Experiment 1 (FIGS. 3a-d), n=75 in Experiment 2 (FIG. 4), n=40 in Experiment 3 (FIGS. 5a-d) and n=48 in Experiment 4 (FIGS. 5e-h)} 3-4 months old (Charles River Laboratory, France) were used. Mice were surgically-implanted bilaterally 1 mm above the dorsal hippocampus (A/P, -2 mm; M/L, ±1.3 mm; D/V, 0.9 mm; relative to dura and bregma) following to Franklin and Paxinos’s mouse brain atlas (25) then allowed to recover for 8 days before the behavioral experiments.
Adaptive vs maladaptive (PTSD-like) fear memory. […] In contrast, Cort-injected mice will display a maladaptive (PTSD-like) memory attested by an abnormally high fear response to the irrelevant tone (cue-based hypermnesia) together with a decreased conditioned fear to the conditioning context (contextual amnesia) (5). • Memory tests - After fear conditioning, each animal was returned to its home cage and 24 h later, all mice were submitted to two memory tests during which freezing behavior, defined as a lack of any movement except for respiratory-related movements (29), was measured and used as an index of conditioned fear.
Drug injections. Immediately after the acquisition of fear conditioning, mice were randomly divided into groups firstly according to first their systemic injection of Cort and secondly their specific intra-hippocampal infusion. […] Vehicle (NaCl 0.9%, n=8), 2. […] Vehicles (aCSF + NaCl 0.9%, n=15), 2. […] Vehicles (aCSF + NaCl 0.9%, n=8), 2. […] Vehicles (aCSF + DMSO, n=12), 2.
PAI-1 and BDNF were diluted in artificial CSF (aCSF) and Tiplaxtinin in 1.6 % dimethyl sulfoxide (DMSO) and then diluted in aCSF. Bilateral infusions of 0.3 µl/side were administered into the dorsal hippocampus immediately after acquisition of fear conditioning at a constant rate (0.1 µl/min).

For series [8], the system named is dorsal hippocampal slices. In words: Protein expression in dorsal hippocampal slices incubated with corticosterone (western blot). Type of series: cell-based, Sprague-Dawley rats. As for the experimental part:
Briefly, adult male Sprague-Dawley rats (2-3 months old n=18, Charles River Laboratory, France) were used. Rats were then anesthetized with isoflurane and transcardially perfused with nearly frozen modified artificial cerebrospinal fluid (CSF) with 3 mM kynurenic acid. The modified CSF for perfusion contained: (in mM) 87 NaCl, 75 Sucrose, 25 Glucose, 5 KCl, 21 MgCl2, 0.5 CaCl2 and 1.25 NaH2PO4. After perfusion, the brains were quickly removed and sliced (300 µm) in the coronal plane using a vibratome (Campden Instruments, UK). Immediately after cutting, slices were stored for 40 min at 32° C. in CSF ((in mM): 130 NaCl, 11 Glucose, 2.5 KCl, 2.4 MgCl2, 1.2 CaCl2, 23 NaHCO3, 1.2 NaH2PO4), equilibrated with 95% O2 / 5% CO2 then stored at room temperature for the rest of the experiment. […] Dorsal hippocampi were isolated, and proteins were extracted as previously described (14;16).
Protein extraction from brain tissues and immunoblotting analysis. A detailed description of protein extraction and immunoblotting analysis has been reported previously (14-16;20;21). Briefly, protein sample extracts from PC12 cells and mouse and rat hippocampi were performed in RIPA buffer containing protease and phosphatase inhibitors (#P8340 and #P0044, Sigma, USA) before being subjected to immunoblotting experiments. […] Rabbit polyclonal anti-PAI-1 antibodies were from Lifespan Biosciences (LSBio#C81062, 1/1000, WA, USA) and Epitomics (#3917-1, 1/3000, CA, USA), anti-tPA (#T5600-05G; 1/5000) was from US Biologicals (MA, USA), anti-Erk1/2^MAPK (#06-182; 1/50000) was from Millipore (MA, USA), anti-Phospho-Erk1/2^MAPK (#9101S; 1/1000) was from CST (MA, USA). Rabbit monoclonal antibodies anti-Phospho-Erk1/2^MAPK (#4370; 1/5000) was from CST (MA, USA), anti-Phospho-TrkB (#2149-1; 1/5000) was from Epitomics (CA, USA), anti-TrkB (#610101; 1/2000) was from BD Biosciences (NJ, USA). Mouse monoclonal anti-Neuronal Class III β-Tubulin (TUJ1) (#MMS-435P; 1/20000) was from Eurogentec (Belgium), anti-α-tubulin (#N356, 1/50000) was from Amersham Life Sciences (Del, USA). CST provided secondary antibodies: anti-rabbit IgG, HRP-linked antibody (#7074, 1/5000) and anti-mouse IgG, HRP-linked antibody (#7076, 1/20000). In all experiments, βIII-tubulin or α-tubulin measures were used as a loading control. X-Ray films (Kodak, USA) were quantified by densitometry (optical density; OD) using a GS-800 scanner coupled with Quantity One software (Bio-Rad, CA, USA).
(In general: Immunoblotting shows a protein as a band on a membrane.)

For series [9], the system named is PC12 cells. Nature of the series: PAI-1 expression in PC12 cells treated with corticosterone (qPCR, western blot). It is filed as cell-based, rat. The settings on record: Cort 100 and 1000 nM, 3 h. Here is the method:
Chemicals. […] Millipore (USA) provided the recombinant human BDNF (CAS Nb 218441-99-7, #GF029, 100 ng/side) and tPA inhibitor; stable recombinant mutant of human Type 1 Plasminogen Activator Inhibitor (PAI-1; CAS Nb: 140208-23-7, #528208, ranging from 30 to 240 ng/side) (16;18). The small-molecule inhibitor of PAI-1 activity Tiplaxtinin (PAI-039; CAS Nb: 393105-53-8, #1383, 5 ng/side) was provided by Axon MEDCHEM (The Netherlands).
Cell culture. PC12 cell line (ATCC CRL-1721) derived from a transplantable rat pheochromocytoma was used (14;16). […]
Quantitative PCR analysis. […] RNA was processed and analyzed using an adapted version of published methods (23). cDNA was synthesized from 2 µg of total RNA using RevertAid Premium Reverse Transcriptase (Fermentas, Thermo Fisher Scientific, USA) and primed with oligo-dT primers (Fermentas, Thermo Fisher Scientific, USA) and random primers (Fermentas, Thermo Fisher Scientific, USA). qPCR was perfomed using a LightCycler® 480 Real-Time PCR System (Roche, Meylan, France). qPCR reactions were done in duplicate for each sample, using transcript-specific primers, cDNA (4 ng) and LightCycler 480 SYBR Green I Master (Roche) in a final volume of 10 µl. The PCR data were exported and analyzed in a computer-based tool (Gene Expression Analysis Software Environment) developed at the Neurocentre Magendie (France). […]

Entries after “also recorded” stand apart in the source; their conditions may differ.

PAI-1, sequence (P05121 24-402, species assumed): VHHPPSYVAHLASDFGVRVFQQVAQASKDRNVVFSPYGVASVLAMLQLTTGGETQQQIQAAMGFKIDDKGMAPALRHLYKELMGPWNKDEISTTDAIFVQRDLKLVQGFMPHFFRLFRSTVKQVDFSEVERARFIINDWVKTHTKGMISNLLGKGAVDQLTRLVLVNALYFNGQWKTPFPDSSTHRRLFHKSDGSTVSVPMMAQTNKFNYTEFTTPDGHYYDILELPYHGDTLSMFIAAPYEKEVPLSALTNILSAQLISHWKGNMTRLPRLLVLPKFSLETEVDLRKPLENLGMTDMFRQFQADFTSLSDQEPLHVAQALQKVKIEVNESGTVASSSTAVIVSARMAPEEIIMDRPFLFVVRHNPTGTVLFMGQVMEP

On to `O=C(CCCCC(=O)Nc1scc(-c2cccs2)c1C(=O)O)Nc1scc(-c2cccs2)c1C(=O)O` [TM5007], for which, in series [1], the oral pharmacokinetic profile entry is reported as “not ideal”.

Turning to `CCCCCc1c(-c2ccc3cc(OCc4nnn[nH]4)ccc3c2)n(Cc2ccccc2)c2ccccc12` [PAI-749, 1-benzyl-3-pentyl-2[-(1H-tetrazol-5-ylmethoxy)naphthalene-2-yl]-1Hindole], in series [2], the PAI-1 activity entry is on record as “neutralize PAI-1 activity”.

Take `Fc1ccc([C@@H]2CCNC[C@H]2COc2ccc3c(c2)OCO3)cc1` [paroxetine]: in series [3], the “benefit in PTSD over placebo” value is “small to modest benefit”.

In the case of `COc1ccc(C(CN(C)C)C2(O)CCCCC2)cc1` (stereo not drawn) [venlafaxine], the “benefit in PTSD over placebo” value in series [3] is recorded as “small to modest benefit”.

Take `O=C(COCC(=O)N1CCN(C(c2ccccc2)c2ccccc2)CC1)Nc1ccc(Cl)cc1C(=O)[O-].[Na+]` [TM5275]: in [1], the oral pharmacokinetic profile entry was “improved oral pharmacokinetic properties”. The TGF-B1-induced lung fibrosis entry in series [4] is listed as “blocks”. Further, the antithrombotic ability result in [5] and in series [6] was “effective antithrombotic ability” in each case.

Take `O=C(O)C(=O)c1cn(Cc2ccccc2)c2ccc(-c3ccc(OC(F)(F)F)cc3)cc12` [Tiplaxtinin, 1H-indole-3-acetic acid, a-oxo-1-(phenylmethyl)-5-(4-trifluoromethoxyphenyl)]: in series [7] (Tiplaxtinin 5 ng/side intra-hippocampal immediately after conditioning, Cort 2 mg/kg i.p., freezing tested 24 h later), the “appearance of PTSD-like memory in Cort-treated animals” value was “prevented the appearance of PTSD-like memory; also recorded: normalizes traumatic memory”.

Turning to `CNCCC(Oc1ccc(C(F)(F)F)cc1)c1ccccc1` (stereo not drawn) [fluoxetine], the “benefit in PTSD over placebo” value in series [3] is “small to modest benefit”.

In the case of `C[C@]12C[C@H](O)[C@H]3[C@@H](CCC4=CC(=O)CC[C@@]43C)[C@@H]1CC[C@@H]2C(=O)CO` [Cort, corticosterone], the “tPA, P-TrkB and P-Erk1/2MAPK proteins” value in [8] (Cort 10 nM, 1 h after treatment) is recorded as “increase”; in [8] (Cort 1000 nM, after 3 h treatment), “suppression of the increase”. For the same molecule, the PAI-1 protein entry in series [8] (Cort 10 nM, 3 h after treatment) is recorded as “increase”; in series [8] (Cort 1000 nM, 1 h after treatment) it was “early increase”. Moreover, in [9] (qPCR), the “expression of PAI-1 mRNA” value is listed as “strongly increased”. In [9] (western blot), the “expression of PAI-1 protein” value is given as “strongly increased”. In addition, the PTSD-like memory impairments result in [7] (Cort 2 mg/kg i.p. immediately after conditioning) is on record as “PTSD-like memory impairments appeared”.

B1: mature BDNF: recombinant human BDNF, CAS 218441-99-7 (protein, UniProt P23560 19-247, looked up)
Neurotrophic factor BDNF …: APMKEANIRGQGGLAYPGVRTHGTLESVNGPKAGSRGLTSLADTFEHVIEELLDEDQKVRPNEENNKDADLYTSRVMLSSQVPLEPPLLFLLEEYKNYLDAANMSMRVRRHSDPARRGELSVCDSISEWVTAADKKTAVDMSGGTVTVLEKVPVSKGQLKQYFYETKCNPMGYTKEGCRGIDKRHWNSQCRTTQSYVRALTMDSKKRIGWRFIRIDTSCVCTLTIKRGR
For the molecule B1, in series [7] (mature BDNF 100 ng/side concomitant with PAI-1 240 ng/side, intra-hippocampal), the “reversal of the effect of PAI-1 on fear memory” value is reported as “completely reversed”.

The record behind these values is patent publication US20230305023A1, “METHODS OF TREATMENT AND DIAGNOSTIC OF PATHOLOGICAL CONDITIONS ASSOCIATED WITH INTENSE STRESS” (INSERM (INSTITUT NATIONAL DE LA SANTÉ ET DE LA RECHERCHE …, priority 2020, published 2023).
